Source: ChEMBL document CHEMBL1201862, “PubChem BioAssay data set” (2004)
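Growth conditions: 96-well plates. Treatment: test compound, 48 hours, 5 concentrations. Analysis: linear interpolation between bracketing concentrations; unreached endpoints set to highest concentration. The concentration for 50% growth inhibition is given as GI50.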 Active and inactive are the calls of the source. Rule as the data show it: active = GI50 up to about 1.1 µM and inactive = higher.

Legend:
Test in all cases: NCI tumour cell line growth inhibition, 48 h
CCRF-CEM = tested on: CCRF-CEM
SK-MEL-5 = tested on: SK-MEL-5
LOX IMVI = tested on: LOX IMVI
SR = tested on: SR
OVCAR-8 = tested on: OVCAR-8
Malme-3M = tested on: Malme-3M
M14 = tested on: M14
NCI-H23 = tested on: NCI-H23
Hs-578T = tested on: Hs-578T
RPMI-8226 = tested on: RPMI-8226
ACHN = tested on: ACHN
HT-29 = tested on: HT-29
HOP-92 = tested on: HOP-92
786-0 = tested on: 786-0
DU-145 = tested on: DU-145
UO-31 = tested on: UO-31
T47D = tested on: T47D
EKVX = tested on: EKVX
U-251 = tested on: U-251
TK-10 = tested on: TK-10

Measured: GI50

COc1cc(/C=N\c2nc(-c3ccc(NS(=O)(=O)c4ccc(Cl)c(OC)c4)cc3)cs2)ccc1O
inactive: CCRF-CEM 30.1 µM | SK-MEL-5 62.8 µM | LOX IMVI 35.7 µM | SR 30.8 µM | OVCAR-8 50.1 µM | Malme-3M 45 µM | M14 95.5 µM | NCI-H23 31.1 µM | Hs-578T 62.5 µM | RPMI-8226 21 µM | ACHN 50.7 µM | HT-29 > 100 µM | HOP-92 24.9 µM | 786-0 > 100 µM | DU-145 > 100 µM | UO-31 60.8 µM | T47D 17.4 µM | EKVX 26.7 µM

O=P(Nc1ccccc1)(Oc1ccccc1)N1CCN(c2ccccc2)CC1 (stereo unspecified)
inactive: CCRF-CEM 26.3 µM | SK-MEL-5 19.4 µM | LOX IMVI 17.4 µM | SR 34.4 µM | OVCAR-8 21.9 µM | Malme-3M 17.2 µM | M14 15.2 µM | U-251 16.8 µM | NCI-H23 19.6 µM | TK-10 21.8 µM | Hs-578T 17.9 µM | RPMI-8226 40.7 µM | ACHN 22.4 µM | HT-29 15.8 µM | HOP-92 18.7 µM | 786-0 22.1 µM | DU-145 19.6 µM | UO-31 14.9 µM | T47D 22.6 µM | EKVX 17.4 µM

Cc1cc(=O)nc(Sc2ccc([N+](=O)[O-])cc2[N+](=O)[O-])[nH]1
inactive: SK-MEL-5 1.75 µM | LOX IMVI 2.81 µM | SR 6.27 µM | OVCAR-8 15.9 µM | Malme-3M 17.3 µM | M14 16.4 µM | U-251 20.7 µM | NCI-H23 18.3 µM | TK-10 15.8 µM | Hs-578T 37.8 µM | RPMI-8226 3.9 µM | ACHN 19.8 µM | HT-29 3.55 µM | HOP-92 6.64 µM | 786-0 16.7 µM | DU-145 17.2 µM | UO-31 17 µM | T47D 17.5 µM | EKVX 32.7 µM
active: CCRF-CEM 0.822 µM

CN1C(=O)C(CCO)(C(C)(C)C)c2ccccc21 (stereo unspecified)
inactive: CCRF-CEM > 100 µM | SK-MEL-5 > 100 µM | LOX IMVI > 100 µM | SR > 100 µM | OVCAR-8 > 100 µM | M14 > 100 µM | U-251 > 100 µM | NCI-H23 > 100 µM | Hs-578T > 100 µM | RPMI-8226 > 100 µM | ACHN > 100 µM | HOP-92 > 100 µM | 786-0 > 100 µM | DU-145 > 100 µM | UO-31 > 100 µM | T47D > 100 µM | EKVX > 100 µM

CC(C)=C1C(=O)C[C@]2(C)C/C=C(\C)CC/C=C(\C)CC[C@@H]12
inactive: CCRF-CEM 9.23 µM | SK-MEL-5 8.38 µM | SR 9.86 µM | OVCAR-8 8.51 µM | M14 7.87 µM | U-251 7.62 µM | NCI-H23 10.2 µM | TK-10 9.42 µM | Hs-578T 11 µM | RPMI-8226 11.9 µM | ACHN 9.02 µM | HT-29 9.08 µM | HOP-92 9.53 µM | 786-0 8.69 µM | DU-145 16.7 µM | UO-31 7.73 µM | T47D 14.9 µM | EKVX 11.2 µM

O=c1[nH]c(=O)n(C2CC(O)C(CO)O2)cc1/N=N/NCCCc1ccccc1 (stereo unspecified)
active: UO-31 < 0.01 µM
inactive: CCRF-CEM > 100 µM | SK-MEL-5 > 100 µM | LOX IMVI > 100 µM | SR > 100 µM | OVCAR-8 > 100 µM | Malme-3M > 100 µM | M14 > 100 µM | NCI-H23 > 100 µM | TK-10 > 100 µM | Hs-578T > 100 µM | ACHN > 100 µM | HT-29 > 100 µM | HOP-92 > 100 µM | 786-0 > 100 µM | DU-145 > 100 µM | T47D > 100 µM | EKVX > 100 µM

O=S(=O)(Oc1ccc2oc3ccccc3c2c1-c1c(OS(=O)(=O)C(F)(F)F)ccc2oc3ccccc3c12)C(F)(F)F
inactive: CCRF-CEM > 100 µM | SK-MEL-5 > 100 µM | LOX IMVI > 100 µM | SR > 100 µM | OVCAR-8 > 100 µM | M14 > 100 µM | U-251 > 100 µM | NCI-H23 > 100 µM | TK-10 > 100 µM | Hs-578T > 100 µM | RPMI-8226 > 100 µM | ACHN > 100 µM | HT-29 > 100 µM | HOP-92 > 100 µM | 786-0 > 100 µM | DU-145 > 100 µM | UO-31 > 100 µM | T47D > 100 µM | EKVX > 100 µM

C=CCN1CCC(c2cc(C(=O)OCC)[nH]c2-c2cc(C)no2)C1=O (stereo unspecified)
inactive: CCRF-CEM > 100 µM | SK-MEL-5 > 100 µM | LOX IMVI > 100 µM | SR 43.8 µM | OVCAR-8 > 100 µM | Malme-3M > 100 µM | M14 > 100 µM | U-251 > 100 µM | NCI-H23 > 100 µM | Hs-578T > 100 µM | RPMI-8226 > 100 µM | HT-29 > 100 µM | HOP-92 > 100 µM | 786-0 > 100 µM | DU-145 > 100 µM | UO-31 > 100 µM | T47D > 100 µM | EKVX > 100 µM

CCOC(=O)C1=C(C)C2C=C(c3cccs3)CC(c3ccc(Cl)cc3)=C2OC1=O (stereo unspecified)
inactive: CCRF-CEM 17.3 µM | SK-MEL-5 27 µM | LOX IMVI 16.9 µM | SR 15.5 µM | OVCAR-8 31.8 µM | M14 58.3 µM | U-251 33.3 µM | NCI-H23 71.1 µM | TK-10 31.7 µM | Hs-578T > 100 µM | RPMI-8226 7.59 µM | ACHN 32.7 µM | HT-29 30 µM | HOP-92 > 100 µM | 786-0 20.6 µM | DU-145 29.9 µM | UO-31 13.3 µM | T47D 3.97 µM | EKVX 31 µM

C=CCc1cc(-c2cc(CC=C)c(O)c(CN(CC)CC)c2)cc(CN(CC)CC)c1O
inactive: CCRF-CEM 28.6 µM | SK-MEL-5 11.1 µM | LOX IMVI 16 µM | SR 13.5 µM | OVCAR-8 > 96.6 µM | Malme-3M 16.8 µM | M14 8.93 µM | U-251 42.4 µM | NCI-H23 60.1 µM | TK-10 62.7 µM | Hs-578T 28.5 µM | RPMI-8226 27.5 µM | ACHN 80 µM | HT-29 15.7 µM | HOP-92 18 µM | 786-0 30.5 µM | DU-145 > 100 µM | UO-31 15.2 µM | T47D 43 µM | EKVX > 80.9 µM

CN1CCCCC1CCN1c2ccccc2Sc2ccc([S+](C)[O-])cc21 (stereo unspecified) [MESORIDAZINE]
inactive: CCRF-CEM > 100 µM | SK-MEL-5 > 100 µM | LOX IMVI > 100 µM | SR > 100 µM | OVCAR-8 > 100 µM | Malme-3M > 100 µM | M14 > 100 µM | U-251 > 100 µM | NCI-H23 > 100 µM | TK-10 > 100 µM | Hs-578T > 100 µM | RPMI-8226 > 100 µM | ACHN > 100 µM | HT-29 > 100 µM | HOP-92 > 100 µM | 786-0 > 100 µM | DU-145 > 100 µM | T47D > 100 µM | EKVX > 100 µM
